Results from US20080027141A1, “1,3-Dihydroxyl-9,10-anthraquinone and 3-[(3-amino)-propoxy]- 9,10-anthraquinone derivatives and pharmaceutical compositions comprising the same” (Kaohsiung Medical University, priority 2006, published 2008).
Read-outs that look alike come from different tables or passages of the source.

What was measured:
[1] = tested on: several cancer cell lines; experiment: Cytotoxic effects against several cancer cell lines in vitro; format: cell-based
Experimental: The cytotoxicity was determined by colorimetric MTT (3-(4,5-dimethylthiazole-2-yl)-2,5-diphenyl-1H-tetrazolium bromide)(Sigma, St. Louis, Mo.) assay as described previously (Wei, Bai-Luh et al. (2000), Eur. J. Med. Chem., 35, 1089-1098). Briefly, cells (5×10^3/well) were plated in 96-well plates and incubated in medium for 6 h, followed by addition of serial dilutions (50 μL/well) of each of the tested compounds. After incubation at 37° C. for 5 or 6 days, the cells were pulsed with 10 μL of MTT (5 mg/mL) and incubated for an additional 4 h at 37° C. Reduced MTT was measured spectrophotometrically using a Dynatech MR 5000 microplate reader (Dynatech Laboratories, Va.) at 550 nm after lysis of cells with 100 μL of 10% SDS in 0.01 M HCl. Control wells contained medium plus cells (total absorbance) or medium alone (background absorbance).

[2] = tested on: Hep3B cells (human hepatoma)
Experimental: (§1) For the microassay, the growth medium was supplemented with 10 mM HEPES buffer (pH 7.3) and incubated at 37° C. in a CO2 incubator.
(§2) The cytotoxicity was determined by colorimetric MTT (3-(4,5-dimethylthiazole-2-yl)-2,5-diphenyl-1H-tetrazolium bromide)(Sigma, St. Louis, Mo.) assay as described previously (Wei, Bai-Luh et al. (2000), Eur. J. Med. Chem., 35, 1089-1098). Briefly, cells (5×10^3/well) were plated in 96-well plates and incubated in medium for 6 h, followed by addition of serial dilutions (50 μL/well) of each of the tested compounds. After incubation at 37° C. for 5 or 6 days, the cells were pulsed with 10 μL of MTT (5 mg/mL) and incubated for an additional 4 h at 37° C. Reduced MTT was measured spectrophotometrically using a Dynatech MR 5000 microplate reader (Dynatech Laboratories, Va.) at 550 nm after lysis of cells with 100 μL of 10% SDS in 0.01 M HCl. Control wells contained medium plus cells (total absorbance) or medium alone (background absorbance). Cell death was calculated as the percentage of MTT inhibition:
(§3) In the experiment, 5-fluorouracil(5-Fu) was used as a positive control.

[3] = tested on: HT-29 cells (human colorectal adenocarcinoma)
Experimental: as §1, §2, §3

[4] = tested on: HepG2 cells (human hepatoma)
Experimental: as §1, §2, §3

[5] = tested on: HepG2 cells (human hepatoma); experiment: In vitro anticancer assay (cytotoxicity), MTT, HepG2; details: for Cytotoxic activity against HepG2 cells (in words): in vitro; for EC50: Homo sapiens, HepG2, read-out: Cytotoxicity ED50, HepG2
Experimental: as §1, §2, §3

[6] = tested on: HT-29 cells (human colorectal adenocarcinoma); experiment: In vitro anticancer assay (cytotoxicity), MTT, HT-29; details: for EC50: Homo sapiens, HT-29, read-out: Cytotoxicity ED50, HT-29
Experimental: as §1, §2, §3

[7] = tested on: Hep3B cells (human hepatoma); experiment: In vitro anticancer assay (cytotoxicity), MTT, Hep3B; details: for EC50: Homo sapiens, Hep3B, read-out: Cytotoxicity ED50, Hep3B
Experimental: as §1, §2, §3

[8] = tested on: MCF-7 cells (human breast adenocarcinoma); experiment: In vitro anticancer assay (cytotoxicity), MTT, MCF-7; details: for EC50: Homo sapiens, MCF7, read-out: Cytotoxicity ED50, MCF-7; for Cytotoxic activity against MCF-7 cells (in words): in vitro
Experimental: as §1, §2, §3

[9] = tested on: MCF-7 cells (human breast adenocarcinoma)
Experimental: as §1, §2, §3

MCF-7 cells [10] = experiment: Flow cytometry analysis (cell cycle, sub-G1, propidium iodide); format: cell-based, human
Experimental: DNA contents were analyzed by flow cytometry, and apoptosis was measured by the accumulation of sub-G1 DNA contents in cells. Results were representative of three independent experiments; and
Flow cytometry was used to determine the change of cell cycle of human cancer cells caused by the treatment of a compound according to this invention.
MCF cells (1×10^4 cells/mL) were treated with various concentrations (6.9, 13.7, and 27.5 μM) of Compound 16 for different time periods (24 h, 48 h and 72 h), followed by washing with PBS so as to terminate the reaction. After fixation with 4% paraformaldehyde/PBS (pH 7.4) at room temperature for 30 min, the cells were centrifuged at 1,000 rpm for 10 min and then permeabilized with 0.1% Triton-X-100/0.1% sodium citrate at 4° C. for 2 min. Subsequently, propidium iodide (Sigma) in PBS (10 μg/mL) was added to stain the cells at 37° C. for 30 min. The intensity of fluorescence was measured with a FACScan flow cytometer (Becton Dickinson, Mountain View, Calif.). A minimum of 5000 cell counts was collected for the analysis by LYSIS II Software.
It has been recognized that apoptotic cells have reduced DNA stainability with a variety of fluorochromes (Ojeda, F. et al. (1990), Cell Immunol., 125:535-539; Afanasev, V. N. et al. (1986), FEBS Lett., 194: 347-350). The appearance of cells with low DNA stainability forms a “sub-G1 peak”, which has been considered to be the hallmark of cell death by apoptosis (Darzynkiewicz, Z. et al. (1992), Cytometry, 13, 795-808). […] In this invention, the applicants proposed that the NHA derivatives might induce cell death by the same way. MCF-7 cells were treated with different concentrations of representative Compound 16 for different time periods.

MCF-7 cells [11] = experiment: DNA fragmentation assay (agarose gel electrophoresis); format: cell-based, human; details: 48 and 72 h incubation, 6.9, 13.7 and 27.5 μM
Experimental: Results were representative of three independent experiments.
DNA fragmentation in general is used to characterize cell death by apoptosis (Wyllic, A. H. et al. (1980), Int. Rev. Cytol., 68:251-306; Arends, M. J. and Wyllic, A. H. (1991), Int. Rev. Exp. Pathol., 32:223-254). Apoptosis of MCF-7 cells after treatment with the representative Compound 16 was also studied by DNA fragmentation assay.
MCF cells (1×10^4 cells/mL) in 150-mm plates were treated with various concentrations (6.9, 13.7, and 27.5 μM) of Compound 16 for different time periods (24 h, 48 h and 72 h), followed by washing with PBS so as to terminate the reaction. After the addition of 100 μL lysis buffer [1% of NP-40 (Sigma) in 20 mM EDTA, 50 mM Tris-HCl, pH 7.5] and mixing, the resultant cell lysates were centrifuged at 14,000 rpm for 5 min and the supernatants were collected. The supernatants were incubated with 50 μL of RNase A (20 mg/mL) and 20 μL of SDS (10%) at 56° C. for 2 h. Thereafter, 35 μL of proteinase K (20 mg/mL) was added and the resultant mixture was incubated at 37° C. overnight. DNA fragments were precipitated after the addition of 150 μL of 10M NH4OAc and 1.2 mL of 100% ethanol at −20° C. overnight. After centrifuging and drying, the thus-obtained DNA pellets were re-suspended in 15 μL Tris-EDTA buffer and electrophoresed on a 1% agarose gel in TBE buffer at 30 V for 8 h. […]

[12] = tested on: HepG2 cells (human hepatoma); details: Wei, Bai-Luh et al. (2000); read-out: ED50, HepG2 (applicants' earlier study); cited from earlier work
[13] = tested on: Hep3B cells (human hepatoma); details: Wei, Bai-Luh et al. (2000); read-out: ED50, Hep3B (applicants' earlier study); cited from earlier work

With `O=C1c2ccccc2C(=O)c2c(O)cc(O)cc21` [Compound 1, 1,3-dihydroxy-9,10-anthraquinone] the “Cytotoxic effects against several cancer cell lines (in words)” value [1] was “failed to show cytotoxic effects”.
With `O=C1c2ccccc2C(=O)c2c(O)cc(OCCCBr)cc21` [Compound 2, 1-hydroxy-3-(3-bromopropoxy)-9,10-anthraquinone] the “Cytotoxic activity against Hep3B cells (in words)” value [2] was “no significant cytotoxic activity”, the “Cytotoxic activity against HT-29 cells (in words)” value [3] was “no significant cytotoxic activity” and the “Cytotoxic activity against HepG2 cells (in words)” value [4] was “no significant cytotoxic activity”.
In the case of `O=C1c2ccccc2C(=O)c2cc(O)ccc21` [Compound 3, 3-hydroxy-9,10-anthraquinone], the “Cytotoxic activity against HepG2 cells (in words)” value [5] is reported as “no significant cytotoxic activity”, the “Cytotoxic activity against HT-29 cells (in words)” value ([6]; in vitro) is reported as “no significant cytotoxic activity” and the “Cytotoxic activity against Hep3B cells (in words)” value ([7]; in vitro) is reported as “no significant cytotoxic activity”.
With `O=C1c2ccccc2C(=O)c2cc(OCCCBr)ccc21` [Compound 4, 3-(3-bromopropoxy)-9,10-anthraquinone] the “Cytotoxic activity against Hep3B cells (in words)” value [2] was “no significant cytotoxic activity”, the “Cytotoxic activity against HT-29 cells (in words)” value [3] was “no significant cytotoxic activity” and the “Cytotoxic activity against HepG2 cells (in words)” value [4] was “no significant cytotoxic activity”.
For `CC(C)=CCc1c(O)cc(O)c2c1C(=O)c1ccccc1C2=O` [Compound 5, 1,3-Dihydroxy-4-prenyl-9,10-anthraquinone], the EC50 [8] was 172 µM, the EC50 [5] was 1.23 ± 0.05 µM and the “Cytotoxic activity against HepG2 cells (in words)” value [5] was “potent cytotoxicity”. It also gave an EC50 [6] of 56.2 µM and an EC50 [7] of 9.09 µM.
`O=c1[nH]cc(F)c(=O)[nH]1` [Compound 5-FU, 5-fluorouracil, reference compound] gave an EC50 [5] of 0.25 µM, an EC50 [6] of 0.57 µM and an EC50 [7] of 0.55 µM.
Compound `CC(C)NCCCOc1cc(O)c2c(c1)C(=O)c1ccccc1C2=O` [Compound 6, 1-Hydroxy-3-[3-(isopropylamino)-propoxy]-9,10-anthraquinone] has an EC50 [5] of 5.52 µM, an EC50 [6] of 4.72 µM and an EC50 [7] of 5.97 µM.
With `CC(C)(C)NCCCOc1cc(O)c2c(c1)C(=O)c1ccccc1C2=O` [Compound 7, 3-[3-(tert-Butylamino)-propoxy]-1-hydroxy-9,10-anthraquinone] the EC50 [5] was 5.3 µM, the EC50 [6] was 7.93 µM and the EC50 [7] was 6.8 µM.
Compound `CCCCNCCCOc1cc(O)c2c(c1)C(=O)c1ccccc1C2=O` [Compound 8, 3-[3-(Butylamino)-propoxy]-1-hydroxy-9,10-anthraquinone] has an EC50 [5] of 4.42 µM, an EC50 [6] of 6.52 µM and an EC50 [7] of 7.93 µM.
With `CCN(CC)CCCOc1ccc2c(c1)C(=O)c1ccccc1C2=O` [Compound 9, 3-[3-(Diethylamino)-propoxy]-9,10-anthraquinone] the EC50 [8] was 16.1 µM, the EC50 [5] was 17.2 µM and the EC50 [6] was 11.9 µM. It also gave an EC50 [7] of 12.8 µM.
In the case of `CCCNCCCOc1ccc2c(c1)C(=O)c1ccccc1C2=O` [Compound 10, 3-[3-(Propylamino)-propoxy]-9,10-anthraquinone], the EC50 [8] is reported as 8.36 µM, the EC50 [5] is reported as 8.92 µM and the EC50 [6] is reported as 6.19 µM. For the same compound, the EC50 [7] was 12.4 µM.
With `CC(C)NCCCOc1ccc2c(c1)C(=O)c1ccccc1C2=O` [Compound 11, 3-[3-(Isopropylamino)-propoxy]-9,10-anthraquinone] the EC50 [8] was 11.5 µM, the EC50 [5] was 5.39 µM and the EC50 [6] was 7.12 µM. For the same compound, the “Cytotoxic activity against HepG2 cells (in words)” value [4] was “potent cytotoxic activity” and the EC50 [7] was 11.5 µM.
`CCCCNCCCOc1ccc2c(c1)C(=O)c1ccccc1C2=O` [Compound 12, 3-[3-(Butylamino)-propoxy]-9,10-anthraquinone] gave an EC50 [8] of 10.4 µM, an EC50 [5] of 7.12 µM and an EC50 [6] of 14.5 µM. The EC50 [7] was 14.2 µM.
With `CC(C)CNCCCOc1ccc2c(c1)C(=O)c1ccccc1C2=O` [Compound 13, 3-[3-(Isobutylamino)-propoxy]-9,10-anthraquinone] the EC50 [8] was 14.2 µM, the EC50 [5] was 10.4 µM and the EC50 [6] was 7.72 µM. The EC50 [7] was 9.26 µM.
Work on `CC(C)(C)NCCCOc1ccc2c(c1)C(=O)c1ccccc1C2=O` [Compound 14] yielded an EC50 [2] of 23.2 µM, an EC50 [9] of 20.8 µM and an EC50 [3] of 12.9 µM. The EC50 [4] was 17.5 µM.
For `O=C1c2ccccc2C(=O)c2cc(OCCCNC3CCCCC3)ccc21` [Compound 15, 3-[3-(Cyclohexylamino)-propoxy]-9,10-anthraquinone], the EC50 [8] was 5.79 µM, the “Cytotoxic activity against MCF-7 cells (in words)” value [8] was “stronger cytotoxic activities” and the EC50 [5] was 16 µM. The “Cytotoxic activity against Hep3B cells (in words)” value [2] was “stronger cytotoxic activities”, the “Cytotoxic activity against HT-29 cells (in words)” value [3] was “stronger cytotoxic activities” and the EC50 [6] was 3.86 µM. It also gave an EC50 [7] of 4.96 µM.
For `CN1CCN(CCCOc2ccc3c(c2)C(=O)c2ccccc2C3=O)CC1` [Compound 16], the EC50 [8] was 3.02 µM, the “Cytotoxic activity against MCF-7 cells (in words)” value [8] was “potent cytotoxic activity” and the EC50 [5] was 8.41 µM. For the same compound, the “Cytotoxic activity against Hep3B cells (in words)” value [2] was “less potent cytotoxic activity”, the cell cycle effect (MCF-7 cells [10]; 6.9, 13.7, 27.5 μM) was “arrest G2/M and S phases” and the “sub-G1 peak in DNA histograms” value (MCF-7 cells [10]; 6.9, 13.7, 27.5 μM, 24, 48, 72 h) was “detected”. For the same compound, the maximum apoptosis cells (MCF-7 cells [10]; at 72 h) was 19.97%, the “Cytotoxic activity against HT-29 cells (in words)” value [3] was “potent cytotoxic activity” and the EC50 [6] was 4.67 µM. The DNA fragmentation (MCF-7 cells [11]) was “significantly observed”, the “Cytotoxic activity against HepG2 cells (in words)” value [4] was “less potent cytotoxic activity” and the EC50 [7] was 13.7 µM.
In the case of `CN(C)CCCOc1cc(O)c2c(c1)C(=O)c1ccccc1C2=O` [Compound 19, 1-hydroxy-3-[3-(dimethylamino)-propoxy]-9,10-anthraquinone], the EC50 [12] is listed as roughly 2.6 µM and the EC50 [13] is listed as roughly 7.1 µM.
